Measurements from US10363257B2 (ZENITH EPIGENETICS LTD., priority 2013, dated 2019).
Structures can show the parent of a compound that is named as a salt.

Key:
c-myc = assay: Inhibition of c-myc expression (mRNA, real-time PCR) in MV4-11 cells; assay type: cell-based; details: Human AML MV4-11 cells, 3 h, cMYC mRNA
Outline: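 MV4-11 cells treated 3 h at 37° C with increasing compound concentrations or 0.1% DMSO, in triplicate. cMYC mRNA quantified by one-step TaqMan real-time PCR, Ct normalized to internal control (Cyclophilin primers used), fold expression relative to control.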

[1] = biological target: T1, Brd4 bromodomain 1 (BRD4(1)) (Homo sapiens, UniProt O60885); assay: Inhibition of tetra-acetylated histone H4 binding to Brd4 bromodomain 1 (TR-FRET); details: tetra-acetylated histone H4 peptide, first bromodomain of Brd4
T1 construct: made in house; host or cells: E. coli BL21(DE3)
Outline: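 His-tagged BRD4(1) from E. coli (200 nM) with biotinylated tetra-acetylated H4 peptide (25-50 nM), Eu-cryptate streptavidin and XL665 anti-His, in HEPES pH 7.4/phosphate/KF buffer, 0.2% DMSO. After 2 h at room temperature, TR-FRET 665/620 nm ratio read; IC50 from dose-response curves.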

hIL-6 mRNA = assay: Inhibition of hIL-6 mRNA transcription in LPS-stimulated U937 cells; assay type: cell-based; details: Homo sapiens, U-937; PMA-differentiated U937 cells, 1 h pretreatment, 1 ug/mL LPS stimulation, 3 h; read-out: IL-6 activity (Inhibition of hIL-6 mRNA Transcription)
Experimental: In this example, hIL-6 mRNA in tissue culture cells was quantitated to measure the transcriptional inhibition of hIL-6 when treated with a compound of the invention.
Human leukemic monocyte lymphoma U937 cells (CRL-1593.2) were plated at a density of 3.2×10^4 cells per well in a 96-well plate in 100 μL RPMI-1640 containing 10% FBS and penicillin/streptomycin, and differentiated into macrophages for 3 days in 60 ng/mL PMA ([…]) at 37° C. in 5% CO2 prior to the addition of compound. The cells were pretreated for 1 h with increasing concentrations of test compound in 0.1% DMSO prior to stimulation with 1 ug/mL lipopolysaccharide from Escherichia coli. Triplicate wells were used for each concentration. The cells were incubated at 37° C., 5% CO2 for 3 h before the cells were harvested. At time of harvest, media was removed and cells were rinsed in 200 μL PBS. Cells were harvested using the mRNA Catcher PLUS kit according to manufacturer's instructions. The eluted mRNA was then used in a one-step quantitative real-time PCR reaction using components of the RNA UltraSense™ One-Step Kit (Life Technologies) together with Applied Biosystems TaqMan® primer-probes for hIL-6 and Cyclophilin. Real-time PCR plates were run on a VIa™ 7 real time PCR machine (Applied Biosystems), data was analyzed, normalizing the Ct values for hIL-6 to an internal control, prior to determining the fold expression of each sample, relative to the control.

human AML MV-4-11 cells = assay: Inhibition of cell proliferation in MV4-11 cells (CellTiter Aqueous One); assay type: cell-based; details: for IC50: MV4-11, 72 h; for Cell Proliferation activity: 72 h
Outline: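 Exponentially growing MV-4-11 cells (5×10^4/well) were treated immediately with two-fold dilutions of compound from 30 μM to 0.2 μM, in triplicate, for 72 h at 37° C, 5% CO2. Viability was measured by MTS absorbance at 490 nm after 3–4 h. Proliferation relative to DMSO after blank correction gave IC50.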

SMILES	IC50 (c-myc) [nM]	IC50 [1] [nM]	IC50 (hIL-6 mRNA) [nM]	IC50 (human AML MV-4-11 cells) [nM]	Cell Proliferation activity (human AML MV-4-11 cells)
Cc1noc(C)c1-c1ccc2c(n1)[nH]c(=O)n2Cc1ccccc1 [Example Compound 3, 1-Benzyl-5-(3,5-dimethylisoxazol-4-yl)-1H-imidazo[4,5-b]pyridin-2(3H)-one]	3000 to 30000	300 to 3000	3000 to 30000	3000 to 30000	–
Cc1cnn(C)c1-c1cc([N+](=O)[O-])c2nc(C)n(Cc3ccccc3)c2c1 [compound 81, 1-benzyl-6-(1,4-dimethyl-1H-pyrazol-5-yl)-2-methyl-4-nitro-1H-benzo[d]imidazole]	3000 to 30000	300 to 3000	300 to 3000	3000 to 30000	–
Cc1noc(C)c1-c1cc2c(ccn2Cc2ccccc2)nc1OC=O [Example Compound 37, 1-benzyl-6-(3,5-dimethylisoxazol-4-yl)-1H-pyrrolo[3,2-b]pyridin-5-yl formate]	3000 to 30000	300 to 3000	3000 to 30000	–	Not active
Cc1noc(C)c1-c1cnc2c(c1)ncn2Cc1ccc(Cl)cc1 [Example Compound 42, 4-(3-(4-chlorobenzyl)-3H-imidazo[4,5-b]pyridin-6-yl)-3,5-dimethylisoxazole]	3000 to 30000	300 to 3000	3000 to 30000	3000 to 30000	–
Cc1noc(C)c1-c1cc(N)c2ccn(Cc3ccc(F)cc3)c2n1 [Example Compound 52, 6-(3,5-dimethylisoxazol-4-yl)-1-(4-fluorobenzyl)-1H-pyrrolo[2,3-b]pyridin-4-amine]	3000 to 30000	300 to 3000	300 to 3000	300 to 3000	–
Cc1noc(C)c1-c1cc([N+](=O)[O-])c2nc(N3CCN(C)CC3)n(Cc3ccccc3)c2c1 [compound 136, 4-(1-benzyl-2-(4-methylpiperazin-1-yl)-4-nitro-1H-benzo[d]imidazol-6-yl)-3,5-dimethylisoxazole]	–	≤ 300	300 to 3000	300 to 3000	–
Cc1noc(C)c1-c1cc([N+](=O)[O-])c2nc(N3CCCC3)n(Cc3ccccc3)c2c1 [compound 135, 4-(1-benzyl-4-nitro-2-(pyrrolidin-1-yl)-1H-benzo[d]imidazol-6-yl)-3,5-dimethylisoxazole]	–	≤ 300	≤ 300	300 to 3000	–
Cc1noc(C)c1-c1cnc2c(c1)ncn2Cc1ccc(C(F)(F)F)cc1 [Example Compound 40, 3,5-dimethyl-4-(3-(4-(trifluoromethyl)benzyl)-3H-imidazo[4,5-b]pyridin-6-yl)isoxazole]	–	300 to 3000	3000 to 30000	–	Not active
COCCNc1nc2c([N+](=O)[O-])cc(-c3c(C)noc3C)cc2n1Cc1ccccc1 [compound 137, 1-benzyl-6-(3,5-dimethylisoxazol-4-yl)-N-(2-methoxyethyl)-4-nitro-1H-benzo[d]imidazol-2-amine]	–	≤ 300	≤ 300	≤ 300	–
Cc1noc(C)c1-c1cc(C(N)=O)c2[nH]c(=O)n(Cc3ccccc3)c2c1 [Example Compound 21, 1-benzyl-6-(3,5-dimethylisoxazol-4-yl)-2-oxo-2,3-dihydro-1H-benzo[d]imidazole-4-carboxamide]	–	≤ 300	≤ 300	300 to 3000	–
CC(=O)Nc1cc(-c2c(C)noc2C)cc2c1n(C)c(=O)n2Cc1ccccc1 [compound 164, N-(1-benzyl-6-(3,5-dimethylisoxazol-4-yl)-3-methyl-2-oxo-2,3-dihydro-1H-benzo[d]imidazol-4-yl)acetamide]	–	≤ 300	≤ 300	–	–
Cc1noc(C)c1-c1cnc2ncn(Cc3ccc(C(F)(F)F)cc3)c2c1 [Example Compound 41, 3,5-dimethyl-4-(1-(4-(trifluoromethyl)benzyl)-1H-imidazo[4,5-b]pyridin-6-yl)isoxazole]	–	≤ 300	3000 to 30000	300 to 3000	–
Cc1noc(C)c1-c1ccc2ncc(=O)n(Cc3ccccc3)c2c1 [Example Compound 11, 1-Benzyl-7-(3,5-dimethylisoxazol-4-yl)quinoxalin-2(1H)-one]	–	≤ 300	300 to 3000	–	Not active
Cc1noc(C)c1-c1cc(C#N)c2nc(C)n(Cc3ccccc3)c2c1 [compound 85, 1-benzyl-6-(3,5-dimethylisoxazol-4-yl)-2-methyl-1H-benzo[d]imidazole-4-carbonitrile]	≤ 300	≤ 300	300 to 3000	–	–
Cc1nc2ncc(-c3ccnn3C)cc2n1Cc1ccccc1 [compound 154, 1-benzyl-2-methyl-6-(1-methyl-1H-pyrazol-5-yl)-1H-imidazo[4,5-b]pyridine]	–	≤ 300	3000 to 30000	3000 to 30000	–
Cc1noc(C)c1-c1ccc2[nH]cc(Nc3ccccc3)c2n1 [Example Compound 23, 5-(3,5-dimethylisoxazol-4-yl)-N-phenyl-1H-pyrrolo[3,2-b]pyridin-3-amine]	–	300 to 3000	300 to 3000	3000 to 30000	–
Cc1noc(C)c1-c1cc([N+](=O)[O-])c2c(c1)n(Cc1ccccc1)c(=O)n2C [compound 150, 1-benzyl-6-(3,5-dimethylisoxazol-4-yl)-3-methyl-4-nitro-1H-benzo[d]imidazol-2(3H)-one]	–	≤ 300	300 to 3000	–	Not active
Cc1noc(C)c1-c1cnc2nc(C)n(Cc3ccc(C#N)cc3)c2c1 [compound 70, 4-((6-(3,5-dimethylisoxazol-4-yl)-2-methyl-1H-imidazo[4,5-b]pyridin-1-yl)methyl)benzonitrile]	–	≤ 300	300 to 3000	3000 to 30000	–
Cc1noc(C)c1-c1cnc2nc(NC3CCC(O)CC3)n(Cc3ccccc3)c2c1 (stereo not drawn) [compound 207, 4-((1-benzyl-6-(3,5-dimethylisoxazol-4-yl)-1H-imidazo[4,5-b]pyridin-2-yl)amino)cyclohexanol]	–	≤ 300	≤ 300	≤ 300	–
Cc1noc(C)c1-c1nc(N)c2ncn(Cc3ccccc3)c2n1 [Example Compound 1, 9-Benzyl-2-(3,5-dimethylisoxazol-4-yl)-9H-purin-6-amine]	–	300 to 3000	300 to 3000	–	Not active
Cc1noc(C)c1-c1cnc2nc(C)n(CC3CC3)c2c1 [Example Compound 63, 4-(1-(cyclopropylmethyl)-2-methyl-1H-imidazo[4,5-b]pyridin-6-yl)-3,5-dimethylisoxazole]	3000 to 30000	300 to 3000	300 to 3000	–	–
Cc1noc(C)c1-c1cc2c(ccn2Cc2ccccc2)[nH]c1=O [Example Compound 56, 1-benzyl-6-(3,5-dimethylisoxazol-4-yl)-1H-pyrrolo[3,2-b]pyridin-5(4H)-one]	–	300 to 3000	3000 to 30000	–	–
Cc1noc(C)c1-c1cnc2nc(C)n(CC3CCCC3)c2c1 [compound 192, 4-(1-(cyclopentylmethyl)-2-methyl-1H-imidazo[4,5-b]pyridin-6-yl)-3,5-dimethylisoxazole]	300 to 3000	≤ 300	–	300 to 3000	–
Cc1noc(C)c1-c1cc(N)c2c(c1)n(Cc1ccccc1)c(=O)n2C [compound 162, 4-amino-1-benzyl-6-(3,5-dimethylisoxazol-4-yl)-3-methyl-1H-benzo[d]imidazol-2(3H)-one]	–	≤ 300	≤ 300	≤ 300	–
Cc1noc(C)c1-c1cnc2ncn(Cc3ccc(Cl)cc3)c2c1 [Example Compound 43, 4-(1-(4-chlorobenzyl)-1H-imidazo[4,5-b]pyridin-6-yl)-3,5-dimethylisoxazole]	–	≤ 300	300 to 3000	300 to 3000	–
Cc1noc(C)c1-c1cc(N)c2[nH]c(=O)n([C@@H](C)c3ccccc3)c2c1 [compound 178, (S)-4-amino-6-(3,5-dimethylisoxazol-4-yl)-1-(1-phenylethyl)-1H-benzo[d]imidazol-2(3H)-one]	≤ 300	≤ 300	–	300 to 3000	–
Cc1noc(C)c1-c1cc2c(cn1)ncn2Cc1ccccc1 [Example Compound 31, 4-(1-benzyl-1H-imidazo[4,5-c]pyridin-6-yl)-3,5-dimethylisoxazole]	–	300 to 3000	300 to 3000	3000 to 30000	–
